Assay results taken from PubChem BioAssay (NCI).
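48-hour exposure; five concentrations; linearly interpolated endpoints. Abbreviation: GI50, concentration required for 50% inhibition of growth. At the TGI there is no net growth.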

Assays:
Assay in all cases: NCI-60 cell line screen, 48 h
[1] = test system: SW-620 colon
[2] = test system: SK-MEL-28 melanoma
[3] = test system: UO-31 renal
[4] = test system: HCT-116 colon
[5] = test system: MDA-MB-231 breast
[6] = test system: MDA-MB-435
[7] = test system: NCI-H226 lung
[8] = test system: BT-549 breast
[9] = test system: IGROV1 ovarian
[10] = test system: UACC-257 melanoma
[11] = test system: NCI-H460 lung
[12] = test system: SF-268 CNS
[13] = test system: CCRF-CEM leukemia
[14] = test system: SK-MEL-5 melanoma
[15] = test system: SF-539 CNS
[16] = test system: ACHN renal
[17] = test system: DU-145 prostate
[18] = test system: A549 NSCLC
[19] = test system: HCT-15 colon
[20] = test system: KM12 colon
[21] = test system: RPMI-8226 leukemia
[22] = test system: PC-3 prostate
[23] = test system: RXF 393 renal
[24] = test system: OVCAR-5 ovarian
[25] = test system: HCC-2998 colon
[26] = test system: OVCAR-3 ovarian
[27] = test system: HS 578T breast
[28] = test system: SK-MEL-2 melanoma
[29] = test system: NCI-H23 lung
[30] = test system: K-562 leukemia
[31] = test system: TK-10 renal
[32] = test system: EKVX NSCLC
[33] = test system: SN12C renal
[34] = test system: A498 renal
[35] = test system: 786-0 renal
[36] = test system: MOLT-4 leukemia
[37] = test system: SF-295 CNS
[38] = test system: HOP-92 NSCLC
[39] = test system: HOP-62 NSCLC
[40] = test system: HT29 colon
[41] = test system: NCI/ADR-RES ovarian
[42] = test system: MALME-3M melanoma
[43] = test system: SNB-19 CNS
[44] = test system: LOX IMVI melanoma
[45] = test system: COLO 205 colon
[46] = test system: HL-60(TB) leukemia
[47] = test system: MCF7 breast
[48] = test system: U251 CNS
[49] = test system: M14 melanoma
[50] = test system: UACC-62 melanoma
[51] = test system: NCI-H522 lung
[52] = test system: OVCAR-8 ovarian
[53] = test system: SK-OV-3 ovarian
[54] = test system: CAKI-1 renal

CCCOc1cc2ccccc2cc1C(=O)Nc1nc(NC)c2c(ccc3nccc32)[nH]1
GI50 [1]: 0.383 µM | TGI [1]: 1.74 µM | GI50 [2]: 1.14 µM | TGI [2]: 2.43 µM | GI50 [3]: 1.17 µM | TGI [3]: 2.59 µM | GI50 [4]: 0.35 µM | TGI [4]: 1.24 µM | GI50 [5]: 1.34 µM | TGI [5]: 2.87 µM | GI50 [6]: 0.0401 µM | TGI [6]: 0.197 µM | GI50 [7]: 1.65 µM | TGI [7]: 3.8 µM | GI50 [8]: 1.45 µM | TGI [8]: 3.02 µM | GI50 [9]: 1.17 µM | TGI [9]: 2.71 µM | GI50 [10]: 1.21 µM | TGI [10]: 2.56 µM | GI50 [11]: 0.348 µM | TGI [11]: 1.13 µM | GI50 [12]: 0.559 µM | TGI [12]: 2.05 µM | GI50 [13]: 0.311 µM | TGI [13]: 1.04 µM | GI50 [14]: 0.994 µM | TGI [14]: 2.2 µM | GI50 [15]: 0.623 µM | TGI [15]: 2.06 µM | GI50 [16]: 0.52 µM | TGI [16]: 1.91 µM | GI50 [17]: 0.345 µM | TGI [17]: 1.23 µM | GI50 [18]: 0.978 µM | TGI [18]: 2.39 µM | GI50 [19]: 0.24 µM | TGI [19]: 1.03 µM | GI50 [20]: 0.295 µM | TGI [20]: 1.46 µM | GI50 [21]: 0.402 µM | TGI [21]: 1.83 µM | GI50 [22]: 0.494 µM | TGI [22]: 2 µM | GI50 [23]: 0.404 µM | TGI [23]: 1.68 µM | GI50 [24]: 1.4 µM | TGI [24]: 3 µM | GI50 [25]: 1.11 µM | TGI [25]: 2.41 µM | GI50 [26]: 0.248 µM | TGI [26]: 1.13 µM | GI50 [27]: 1.42 µM | TGI [27]: 3.85 µM | GI50 [28]: 0.325 µM | TGI [28]: 1.36 µM | GI50 [29]: 1.1 µM | TGI [29]: 2.53 µM | GI50 [30]: 0.0883 µM | TGI [30]: 0.912 µM | GI50 [31]: 1.36 µM | TGI [31]: 2.68 µM | GI50 [32]: 0.611 µM | TGI [32]: 2.04 µM | GI50 [33]: 1.72 µM | TGI [33]: 3.48 µM | GI50 [34]: 0.359 µM | TGI [34]: 1.75 µM | GI50 [35]: 0.613 µM | TGI [35]: 2.07 µM | GI50 [36]: 0.496 µM | TGI [36]: 2.32 µM | GI50 [37]: 0.0866 µM | TGI [37]: 1.2 µM | GI50 [38]: 1.15 µM | TGI [38]: 2.51 µM | GI50 [39]: 0.779 µM | TGI [39]: 2.28 µM | GI50 [40]: 0.208 µM | TGI [40]: 0.446 µM | GI50 [41]: 0.55 µM | TGI [41]: 2.48 µM | GI50 [42]: 1.15 µM | TGI [42]: 2.54 µM | GI50 [43]: 0.701 µM | TGI [43]: 2.23 µM | GI50 [44]: 0.42 µM | TGI [44]: 1.76 µM | GI50 [45]: 0.479 µM | TGI [45]: 1.81 µM | GI50 [46]: 0.23 µM | TGI [46]: 0.611 µM | GI50 [47]: 0.263 µM | TGI [47]: 1.31 µM | GI50 [48]: 0.521 µM | TGI [48]: 1.74 µM | GI50 [49]: 0.444 µM | TGI [49]: 1.98 µM | GI50 [50]: 0.556 µM | TGI [50]: 2.12 µM | GI50 [51]: 0.0449 µM | TGI [51]: 0.219 µM | GI50 [52]: 0.89 µM | TGI [52]: 2.3 µM | GI50 [53]: 0.473 µM | TGI [53]: 1.78 µM | GI50 [54]: 1.76 µM | TGI [54]: 3.82 µM
